As usually defined, the EC50 is the concentration needed to bring the measured effect to its halfway point. Read a low EC50 as higher potency in that assay.

Where only a bound is given, the exact number is not on record here.

One assay has as its target human TLR8 (Homo sapiens (Human), UniProt Q9NR97). Put plainly: HEK-Blue human TLR8 cells, NF-κB SEAP reporter assay. The note with it: stimulation for 20 hours. It counts as cell-based. An excerpt:
(§1) For TLR8 and TLR7 activity testing, HEK-Blue human TLR8 or TLR7 cells (Invivogen, San Diego, Calif., USA) are used, respectively. These cells are designed for studying the stimulation of human TLR8 or TLR7 by monitoring the activation of NF-κB. A SEAP (secreted embryonic alkaline phosphatase) reporter gene is placed under the control of the IFN-b minimal promoter fused to five NF-κB and AP-1-binding sites. Therefore the reporter expression is regulated by the NF-κB promoter upon stimulation of human TLR8 or TLR7 for 20 hours. The cell culture supernatant SEAP reporter activity was determined using Quanti Blue kit (Invivogen, San Diego, Ca, USA) at a wavelength of 640 nm, a detection medium that turns purple/blue in the presence of alkaline phosphatase. EC50 values were determined using Activity Base analysis (ID Business Solution, Limited).
Background: Reporter assays use an easily measured gene product as a stand-in for the process of interest.

Another assay has as its target human TLR7 (Homo sapiens (Human), UniProt Q9NYK1). The assay is described as follows: HEK-Blue human TLR7 cells, NF-κB SEAP reporter assay. It counts as cell-based. The settings on record: stimulation for 20 hours.
Text: as §1

human TLR7, sequence (Q9NYK1 27-1049): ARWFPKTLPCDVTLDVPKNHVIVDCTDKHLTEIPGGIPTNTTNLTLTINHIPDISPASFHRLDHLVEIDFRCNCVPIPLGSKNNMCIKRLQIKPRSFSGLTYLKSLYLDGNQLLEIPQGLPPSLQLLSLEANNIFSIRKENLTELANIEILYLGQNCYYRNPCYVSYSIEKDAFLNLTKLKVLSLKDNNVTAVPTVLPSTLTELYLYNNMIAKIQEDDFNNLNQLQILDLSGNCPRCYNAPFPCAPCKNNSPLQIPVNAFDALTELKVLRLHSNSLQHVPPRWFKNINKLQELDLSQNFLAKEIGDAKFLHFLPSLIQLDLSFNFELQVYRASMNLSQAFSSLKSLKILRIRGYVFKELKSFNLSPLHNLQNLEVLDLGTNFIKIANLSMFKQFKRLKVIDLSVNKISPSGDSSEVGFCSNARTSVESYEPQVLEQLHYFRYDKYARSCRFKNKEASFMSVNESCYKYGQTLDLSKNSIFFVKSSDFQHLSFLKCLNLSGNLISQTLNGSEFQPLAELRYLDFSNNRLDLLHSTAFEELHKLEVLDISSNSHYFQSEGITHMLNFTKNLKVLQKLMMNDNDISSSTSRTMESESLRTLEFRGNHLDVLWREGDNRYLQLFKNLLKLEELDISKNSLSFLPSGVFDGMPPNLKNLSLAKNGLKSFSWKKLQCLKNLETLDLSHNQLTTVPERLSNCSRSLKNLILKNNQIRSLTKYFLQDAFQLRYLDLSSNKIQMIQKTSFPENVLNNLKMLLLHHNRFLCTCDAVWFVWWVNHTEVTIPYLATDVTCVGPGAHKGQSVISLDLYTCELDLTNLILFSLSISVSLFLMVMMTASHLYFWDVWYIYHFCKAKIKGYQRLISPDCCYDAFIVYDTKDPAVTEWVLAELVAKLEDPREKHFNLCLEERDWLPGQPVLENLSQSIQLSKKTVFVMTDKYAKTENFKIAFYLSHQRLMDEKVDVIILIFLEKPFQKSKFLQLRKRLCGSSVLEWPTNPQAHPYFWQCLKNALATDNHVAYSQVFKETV
human TLR8, sequence (Q9NR97 27-1041): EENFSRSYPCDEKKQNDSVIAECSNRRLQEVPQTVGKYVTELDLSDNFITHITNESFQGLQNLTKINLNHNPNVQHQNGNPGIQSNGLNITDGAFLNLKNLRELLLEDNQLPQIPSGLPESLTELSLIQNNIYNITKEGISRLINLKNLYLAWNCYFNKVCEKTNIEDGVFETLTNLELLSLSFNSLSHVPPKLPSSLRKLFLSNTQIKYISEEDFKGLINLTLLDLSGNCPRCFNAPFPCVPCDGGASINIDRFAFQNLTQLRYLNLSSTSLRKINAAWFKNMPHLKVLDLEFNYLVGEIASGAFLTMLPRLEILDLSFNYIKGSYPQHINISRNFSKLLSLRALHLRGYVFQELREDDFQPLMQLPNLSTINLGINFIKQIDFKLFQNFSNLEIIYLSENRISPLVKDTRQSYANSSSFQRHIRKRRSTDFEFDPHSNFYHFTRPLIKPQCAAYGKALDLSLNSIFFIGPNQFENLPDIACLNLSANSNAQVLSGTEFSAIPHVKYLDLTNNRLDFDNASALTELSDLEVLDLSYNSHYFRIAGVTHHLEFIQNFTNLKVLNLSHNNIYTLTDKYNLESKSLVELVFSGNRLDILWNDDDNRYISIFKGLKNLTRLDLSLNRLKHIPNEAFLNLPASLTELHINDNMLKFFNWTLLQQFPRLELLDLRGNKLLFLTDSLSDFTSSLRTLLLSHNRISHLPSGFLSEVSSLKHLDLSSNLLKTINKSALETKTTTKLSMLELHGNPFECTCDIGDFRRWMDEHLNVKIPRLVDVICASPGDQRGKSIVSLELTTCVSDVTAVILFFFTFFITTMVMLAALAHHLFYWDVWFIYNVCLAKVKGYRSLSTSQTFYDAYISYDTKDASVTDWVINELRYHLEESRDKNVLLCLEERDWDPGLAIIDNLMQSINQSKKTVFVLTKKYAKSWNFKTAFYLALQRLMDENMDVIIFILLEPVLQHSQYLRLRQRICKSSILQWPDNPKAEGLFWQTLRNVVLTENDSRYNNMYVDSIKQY

`CCCN(CCC)C(=O)C1=Cc2ccc(C(=O)Nc3ccc(C)cc3)cc2N=C(N)C1` [Example 28, 2-Amino-N4,N4-dipropyl-N8-(p-tolyl)-3H-1-benzazepine-4,8-dicarboxamide]: the EC50 on human TLR8 is 1 nM; on human TLR7, > 100000 nM.

As to `CCCN(CCC)C(=O)C1=Cc2ccc(C(=O)Nc3ccc(F)cc3)cc2N=C(N)C1` [Example 13, 2-Amino-N8-(4-fluorophenyl)-N4,N4-dipropyl-3H-1-benzazepine-4,8-dicarboxamide], the results for the EC50 on human TLR8 and at human TLR7 were 7 nM and > 100000 nM, respectively.

As for `CCCN(CCC)C(=O)C1=Cc2ccc(C(=O)Nc3cncc(F)c3)cc2N=C(N)C1` [Example 20, 2-Amino-N8-(5-fluoro-3-pyridyl)-N4,N4-dipropyl-3H-1-benzazepine-4,8-dicarboxamide], the EC50 was 3 nM on human TLR8 and 46000 nM at human TLR7.

As to `CCCN(CCC)C(=O)C1=Cc2ccc(C(=O)Nc3cccc(Cl)c3)cc2N=C(N)C1` [Example 32, 2-Amino-N8-(3-chlorophenyl)-N4,N4-dipropyl-3H-1-benzazepine-4,8-dicarboxamide], the EC50 on human TLR8 was 2 nM; at human TLR7 it was > 100000 nM.

On to `CCCN(CCC)C(=O)C1=Cc2ccc(C(=O)Nc3cncc(CNC(=O)OCc4ccccc4)c3)cc2N=C(N)C1` [Example 67, Benzyl N-[[5-[[2-amino-4-(dipropylcarbamoyl)-3H-1-benzazepine-8-carbonyl]amino]-3-pyridyl]methyl]carbamate], for which the EC50 at human TLR8 was 4 nM; at human TLR7 it was > 100000 nM.

Turning to `CCCN(CCC)C(=O)C1=Cc2ccc(C(=O)Nc3ccccc3C)cc2N=C(N)C1` [Example 27, 2-Amino-N8-(o-tolyl)-N4,N4-dipropyl-3H-1-benzazepine-4,8-dicarboxamide], the EC50 came to 5 nM at human TLR8 and 28000 nM on human TLR7.

In the case of `CCCN(CCC)C(=O)C1=Cc2ccc(C(=O)Nc3ccc(CCCN)nc3)cc2N=C(N)C1` [Example 75, 2-Amino-N8-[6-(3-aminopropyl)-3-pyridyl]-N4,N4-dipropyl-3H-1-benzazepine-4,8-dicarboxamide], the EC50 on human TLR8 is 10 nM; at human TLR7, > 100000 nM.

Take `CCCN(CCC)C(=O)C1=Cc2ccc(C(=O)Nc3cncc(C#CCN)c3)cc2N=C(N)C1` [Example 48, 2-Amino-N8-[5-(3-aminoprop-1-ynyl)-3-pyridyl]-N4,N4-dipropyl-3H-1-benzazepine-4,8-dicarboxamide]: the EC50 on human TLR8 was 16 nM; on human TLR7 it was > 100000 nM.

Take `CCCN(CCC)C(=O)C1=Cc2ccc(C(=O)Nc3cncc(CCN)c3)cc2N=C(N)C1` [Example 80, 2-Amino-N8-[5-(2-aminoethyl)-3-pyridyl]-N4,N4-dipropyl-3H-1-benzazepine-4,8-dicarboxamide]: the EC50 on human TLR8 was 17 nM; on human TLR7, > 100000 nM.

As to `CCCN(CCC)C(=O)C1=Cc2ccc(C(=O)Nc3cccc(C(F)(F)F)c3)cc2N=C(N)C1` [Example 31, 2-Amino-N4,N4-dipropyl-N8-[3-(trifluoromethyl)phenyl]-3H-1-benzazepine-4,8-dicarboxamide], the EC50 at human TLR8 was 5 nM; at human TLR7 it was > 100000 nM.

On to `CCCN(CCCOCCCN)C(=O)C1=Cc2ccc(C(=O)Nc3cccc(C)c3)cc2N=C(N)C1` [Example 56, 2-Amino-N4-[3-(3-aminopropoxy)propyl]-N8-(m-tolyl)-N4-propyl-3H-1-benzazepine-4,8-dicarboxamide], for which the EC50 at human TLR8 was 10 nM; at human TLR7 it was > 100000 nM.

Take `CCCN(CC1CC1)C(=O)C1=Cc2ccc(C(=O)Nc3cncc(OCC)c3)cc2N=C(N)C1` [Example 79, 2-Amino-N4-(cyclopropylmethyl)-N8-(5-ethoxy-3-pyridyl)-N4-propyl-3H-1-benzazepine-4,8-dicarboxamide]: the values for the EC50 on human TLR8 and at human TLR7 were 2 nM and 31000 nM, respectively.

For the molecule `C#CCN(CCC)C(=O)C1=Cc2ccc(C(=O)Nc3cccc(C)c3)cc2N=C(N)C1` [Example 41, 2-Amino-N8-(m-tolyl)-N4-propyl-N4-prop-2-ynyl-3H-1-benzazepine-4,8-dicarboxamide], the EC50 at human TLR8 is 6 nM; at human TLR7 it was > 100000 nM.

In the case of `CCCN(CCC)C(=O)C1=Cc2ccc(C(=O)Nc3cncs3)cc2N=C(N)C1` [Example 9, 2-Amino-N4,N4-dipropyl-N8-thiazol-5-yl-3H-1-benzazepine-4,8-dicarboxamide], the EC50 is 3 nM at human TLR8 and > 100000 nM at human TLR7.

With `CCCN(CCC)C(=O)C1=Cc2ccc(C(=O)Nc3cncc(/C=C/CN)c3)cc2N=C(N)C1` [Example 68, 2-Amino-N8-[5-[(E)-3-aminoprop-1-enyl]-3-pyridyl]-N4,N4-dipropyl-3H-1-benzazepine-4,8-dicarboxamide], the half-maximal effective concentration (EC50) at human TLR8 is 8 nM; at human TLR7, > 100000 nM.

Consider `CCCN(CCC)C(=O)C1=Cc2ccc(C(=O)Nc3ccnnc3)cc2N=C(N)C1` [Example 34, 2-Amino-N4,N4-dipropyl-N8-pyridazin-4-yl-3H-1-benzazepine-4,8-dicarboxamide], for which the EC50 is 2 nM at human TLR8 and > 100000 nM on human TLR7.

As to `CCCN(Cc1ccc(CN)cc1)C(=O)C1=Cc2ccc(C(=O)Nc3cccc(C)c3)cc2N=C(N)C1` [Example 60, 2-Amino-N4-[[4-(aminomethyl)phenyl]methyl]-N8-(m-tolyl)-N4-propyl-3H-1-benzazepine-4,8-dicarboxamide], the EC50 is 27 nM at human TLR8 and > 100000 nM at human TLR7.

On to `CCCN(CCC)C(=O)C1=Cc2ccc(C(=O)Nc3cncc(OCC)c3)cc2N=C(N)C1` [Example 44, 2-Amino-N8-(5-ethoxy-3-pyridyl)-N4,N4-dipropyl-3H-1-benzazepine-4,8-dicarboxamide], for which the figures for the EC50 on human TLR8 and on human TLR7 were 1 nM and 12000 nM, respectively.

Regarding `CCCN(CCC)C(=O)C1=Cc2ccc(C(=O)Nc3cncc(CCc4cccc(OC)c4)c3)cc2N=C(N)C1` [Example 73, 2-Amino-N8-[5-[2-(3-methoxyphenyl)ethyl]-3-pyridyl]-N4,N4-dipropyl-3H-1-benzazepine-4,8-dicarboxamide], the EC50 at human TLR8 was 10 nM; at human TLR7, > 100000 nM.

Take `CCCN(CCC)C(=O)C1=Cc2ccc(C(=O)Nc3cccc(CCN)c3)cc2N=C(N)C1` [Example 54, 2-Amino-N8-[3-(2-aminoethyl)phenyl]-N4,N4-dipropyl-3H-1-benzazepine-4,8-dicarboxamide]: the values for the EC50 at human TLR8 and on human TLR7 were 3 nM and > 100000 nM, respectively.

`CCCN(CCC)C(=O)C1=Cc2ccc(C(=O)Nc3ccn(C)n3)cc2N=C(N)C1` [Example 37, 2-Amino-N8-(1-methylpyrazol-3-yl)-N4,N4-dipropyl-3H-1-benzazepine-4,8-dicarboxamide]: the EC50 was found to be 23 nM on human TLR8 and 38000 nM on human TLR7.

`CCCN(CCC)C(=O)C1=Cc2ccc(C(=O)Nc3ccc(CN)cc3)cc2N=C(N)C1` [Example 24, 2-Amino-N8-[4-(aminomethyl)phenyl]-N4,N4-dipropyl-3H-1-benzazepine-4,8-dicarboxamide]: the EC50 at human TLR8 was 9 nM; at human TLR7 it was > 100000 nM.

On to `CCCN(CCC)C(=O)C1=Cc2ccc(C(=O)Nc3cccc(F)c3)cc2N=C(N)C1` [Example 19, 2-Amino-N8-(3-fluorophenyl)-N4,N4-dipropyl-3H-1-benzazepine-4,8-dicarboxamide], for which the EC50 was 5 nM at human TLR8 and > 100000 nM on human TLR7.

For `CCCN(CCC)C(=O)C1=Cc2ccc(C(=O)Nc3cc(C)cc(CN)c3)cc2N=C(N)C1` [Example 43, 2-Amino-N8-[3-(aminomethyl)-5-methyl-phenyl]-N4,N4-dipropyl-3H-1-benzazepine-4,8-dicarboxamide], the figures for the EC50 on human TLR8 and on human TLR7 were 15 nM and 61000 nM, respectively.

As to `CCCN(CCC)C(=O)C1=Cc2ccc(C(=O)Nc3nccs3)cc2N=C(N)C1` [Example 11, 2-Amino-N4,N4-dipropyl-N8-thiazol-2-yl-3H-1-benzazepine-4,8-dicarboxamide], the EC50 on human TLR8 is 29 nM; at human TLR7, > 100000 nM.

`CCCN(CCC)C(=O)C1=Cc2ccc(C(=O)Nc3cccc(CCCCCN)c3)cc2N=C(N)C1` [Example 57, 2-Amino-N8-[3-(5-aminopentyl)phenyl]-N4,N4-dipropyl-3H-1-benzazepine-4,8-dicarboxamide]: the values for the EC50 at human TLR8 and on human TLR7 were 25 nM and > 100000 nM, respectively.

Take `CCCN(CCC)C(=O)C1=Cc2ccc(C(=O)Nc3cncc(CN)c3)cc2N=C(N)C1` [Example 33, 2-Amino-N8-[5-(aminomethyl)-3-pyridyl]-N4,N4-dipropyl-3H-1-benzazepine-4,8-dicarboxamide]: the concentration for a half-maximal effect (EC50) on human TLR8 was 2 nM; at human TLR7, > 100000 nM.

Consider `CCCN(CCC)C(=O)C1=Cc2ccc(C(=O)Nc3ccc(CCCCCN)cc3)cc2N=C(N)C1` [Example 58, 2-Amino-N8-[4-(5-aminopentyl)phenyl]-N4,N4-dipropyl-3H-1-benzazepine-4,8-dicarboxamide], for which the EC50 was 15 nM on human TLR8 and > 100000 nM on human TLR7.

For the molecule `CCCN(CCC)C(=O)C1=Cc2ccc(C(=O)Nc3cncc(OC)c3)cc2N=C(N)C1` [Example 40, 2-Amino-N8-(5-methoxy-3-pyridyl)-N4,N4-dipropyl-3H-1-benzazepine-4,8-dicarboxamide], the EC50 was 1 nM at human TLR8 and > 100000 nM on human TLR7.

Regarding `CCCN(CCC)C(=O)C1=Cc2ccc(C(=O)Nc3ncco3)cc2N=C(N)C1` [Example 38, 2-Amino-N8-oxazol-2-yl-N4,N4-dipropyl-3H-1-benzazepine-4,8-dicarboxamide], the figures for the EC50 on human TLR8 and at human TLR7 were 29 nM and 45000 nM, respectively.

Regarding `CCCN(CCC)C(=O)C1=Cc2ccc(C(=O)Nc3cccc(CN)c3)cc2N=C(N)C1` [Example 36, 2-Amino-N8-[3-(aminomethyl)phenyl]-N4,N4-dipropyl-3H-1-benzazepine-4,8-dicarboxamide], the EC50 at human TLR8 is 31 nM; at human TLR7 it was > 100000 nM.

Source of the values: US9475775B2, “Benzazepine dicarboxamide compounds” (Hoffmann-La Roche Inc., priority 2015, dated 2016).
